According to patent US10167300B2, “Metalloenzyme inhibitor compounds as fungicides” (priority 2014, dated 2019):
Read-outs that look alike come from different tables or passages of the source.

What was measured:
Assay type in all cases: in vivo, Mycosphaerella graminicola on wheat plants (variety Yuma)
[1] = test system: Mycosphaerella graminicola; Anamorph: Septoria tritici; Bayer Code SEPTTR (standard laboratory isolate, SI SEPTTR); experiment: Type A (high volume) assay, leaf blotch of wheat, standard laboratory SEPTTR isolate (SI SEPTTR); conditions: for pest or weed control at 50 ppm: Zymoseptoria tritici
Procedure, shortened: (§1)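 Wheat seedlings (Yuma, first leaf emerged) sprayed with acetone/Triton X-100 solutions (Type A) or 10% EC diluted in 0.1% Trycol at 200 L/ha (Type B), inoculated before or after spraying. Inoculated plants held 3 days at 20 °C, 100% RH, then greenhouse; % disease control from severity versus untreated plants.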

[2] = test system: Mycosphaerella graminicola; Anamorph: Septoria tritici; Bayer Code SEPTTR (standard laboratory isolate, SI SEPTTR); experiment: Type B (low volume, EC formulation, track sprayer 200 L/ha) assay, leaf blotch of wheat, standard laboratory SEPTTR isolate (SI SEPTTR); conditions: Zymoseptoria tritici, 72 h
Procedure: Example A: Evaluation of Fungicidal Activity: Leaf Blotch of Wheat (Mycosphaerella graminicola; Anamorph: Septoria tritici; Bayer Code SEPTTR)
For Type A assays, technical grades of the experimental fungicides in Table 4 below were dissolved in acetone, and then mixed with nine volumes of water containing 110 ppm Triton X-100. The fungicide solutions were applied onto wheat seedlings using an automated booth sprayer. For Type B assays, emulsifiable concentrate (EC) formulations of technical grades of the experimental fungicides in Table 4 below were prepared at 10% (w/v), and then mixed with 150 volumes of 0.1% Trycol 5941. These solutions were applied onto wheat seedlings using an automated track sprayer at 200 L/ha. All sprayed plants were allowed to air dry prior to further handling.
Wheat plants (variety Yuma) were grown from seed in a greenhouse in 50% mineral soil/50% soil-less Metro mix until the first leaf was fully emerged, with 7-10 seedlings per pot. Prior to or after application of experimental fungicides, plants were inoculated either with spores of a standard laboratory SEPTTR isolate (SI SEPTTR) or with spores from a SEPTTR field isolate collected from Wellsbourne, England in 2012 (FI SEPTTR). After inoculation the plants were kept for 3 days at 20° C. in 100% relative humidity (one day in a dark dew chamber followed by two days in a lighted dew chamber). Plants were then transferred to a 20° C. greenhouse for disease development. When disease symptoms were fully expressed on untreated plants, infection levels on treated plants were assessed on a scale of 0 to 100 percent disease severity. Percent disease control was calculated using the ratio of disease severity on treated plants relative to untreated plants.

[3] = Type B (low volume, EC formulation, track sprayer 200 L/ha) assay, leaf blotch of wheat, SEPTTR field isolate (FI SEPTTR); conditions: Zymoseptoria tritici, 72 h
Procedure, shortened: as §1

[4] = 24 h, standard laboratory isolate, high volume, 50 ppm, 1 Day Protectant, wheat (Yuma), read-out: Disease Control, SI SEPTTR Type A Assay (50 ppm) 1 DP
[5] = standard laboratory isolate, low volume EC, 100 g/ha, 3 Day Curative, wheat (Yuma), read-out: Disease Control, SI SEPTTR Type B Assay (100 g/ha) 3 DC
[6] = standard laboratory isolate, low volume EC, 100 g/ha, 3 Day Protectant, wheat (Yuma), read-out: Disease Control, SI SEPTTR Type B Assay (100 g/ha) 3 DP
[7] = field isolate, low volume EC, 100 g/ha, 3 Day Curative, wheat (Yuma), read-out: Disease Control, FI SEPTTR Type B Assay (100 g/ha) 3 DC
[8] = field isolate, low volume EC, 100 g/ha, 3 Day Protectant, wheat (Yuma), read-out: Disease Control, FI SEPTTR Type B Assay (100 g/ha) 3 DP
[9] = 72 h, standard laboratory isolate, high volume, 50 ppm, 3 Day Curative, wheat (Yuma), read-out: Disease Control, SI SEPTTR Type A Assay (50 ppm) 3 DC

SMILES	pest or weed control at 50 ppm [1, 4]	pest or weed control at 100 g/ha [2, 5]	pest or weed control at 100 g/ha [2, 6]	pest or weed control at 100 g/ha [3, 7]	pest or weed control at 100 g/ha [3, 8]	pest or weed control at 50 ppm [1, 9]	Disease Control, SI SEPTTR Type A Assay (50 ppm) 1 DP ([1]; standard laboratory isolate, high volume, 50 ppm, 1 Day Protectant, wheat (Yuma))	pest or weed control at 50 ppm ([1]; 24 h, read-out: Disease Control, SI SEPTTR Type A Assay (50 ppm) 1 DP)	pest or weed control at 100 g/ha ([2]; read-out: Disease Control, SI SEPTTR Type B Assay (100 g/ha) 3 DC)	pest or weed control at 100 g/ha ([2]; read-out: Disease Control, SI SEPTTR Type B Assay (100 g/ha) 3 DP)	pest or weed control at 100 g/ha ([3]; read-out: Disease Control, FI SEPTTR Type B Assay (100 g/ha) 3 DC)	pest or weed control at 100 g/ha ([3]; read-out: Disease Control, FI SEPTTR Type B Assay (100 g/ha) 3 DP)
Cc1cc(OC(F)(F)F)ccc1-c1ccc(C(O)(c2cncnc2)C(C)(C)C)nc1 (stereo not drawn) [Compound 117]	80 to 100%	80 to 100%	80 to 100%	80 to 100%	80 to 100%							
CC(C)(C)C(O)(c1cncnc1)c1ccc(-c2cccc(OC(F)(F)F)c2)cn1 (stereo not drawn) [Compound 103]	80 to 100%	60 to 79%	80 to 100%	< 40%	80 to 100%							
CC(C)(C)C(O)(c1ccc(-c2ccc(OC(F)F)cc2)cn1)c1cncs1 (stereo not drawn) [Compound 86]	60 to 79%	80 to 100%	80 to 100%	80 to 100%	80 to 100%							
Cc1ncncc1C(O)(c1ccc(-c2ccc(OC(F)(F)F)cc2F)cn1)C(C)(C)C (stereo not drawn) [Compound 157]	80 to 100%	80 to 100%	80 to 100%	80 to 100%	80 to 100%							
CC(C)(C)C(O)(c1cncnc1)c1ccc(-c2ccc(C(F)(F)F)cc2)cn1 (stereo not drawn) [Compound 96]	80 to 100%	80 to 100%	80 to 100%	80 to 100%	80 to 100%							
CC(C)C(O)(c1cncnc1)c1ccc(Oc2ccc(C(F)(F)F)cc2)cn1 (stereo not drawn) [Compound 3, 2-methyl-1-(pyrimidin-5-yl)-1-(5-(4-(trifluoromethyl)-phenoxy)pyridin-2-yl)propan-1-ol]		80 to 100%	80 to 100%	60 to 79%	40 to 59%	80 to 100%	D (<40)					
CC(C)(C#N)c1ccc(-c2ccc(C(O)(c3cncnc3)C(C)(C)C)nc2)cc1 (stereo not drawn) [Compound 152]	80 to 100%	80 to 100%	80 to 100%	80 to 100%	80 to 100%							
Cn1cc(-c2ccc(C(O)(c3cncnc3)C(C)(C)C)nc2)cn1 (stereo not drawn) [Compound 122]	80 to 100%	80 to 100%	80 to 100%	60 to 79%	60 to 79%							
OC(c1cccnc1)(c1ccc(-c2ccc(OC(F)F)cc2)cn1)C1CC1 (stereo not drawn) [Compound 81]	80 to 100%	80 to 100%	60 to 79%	< 40%	80 to 100%							
CC(C)(C)C(O)(c1ccc(-c2ccc(OC(F)(F)F)cc2)cn1)c1cncs1 (stereo not drawn) [Compound 84]	80 to 100%	80 to 100%	80 to 100%	60 to 79%	60 to 79%							
CC(C)(C)C(O)(c1cncnc1)c1ccc(-c2ccc([Si](C)(C)C)cc2)cn1 (stereo not drawn) [Compound 121]								80 to 100%	80 to 100%	80 to 100%	80 to 100%	60 to 79%
OC(c1cccnc1)(c1ccc(-c2ccc(OC(F)(F)F)cc2)cn1)C1CC1 (stereo not drawn) [Compound 78]	80 to 100%	80 to 100%	80 to 100%	60 to 79%	60 to 79%							
OC(Cc1cncnc1)(c1ccc(-c2ccc(Cl)cc2)cn1)C1CC1 (stereo not drawn) [Compound 39]	80 to 100%	80 to 100%	80 to 100%	60 to 79%	40 to 59%	80 to 100%						
OC(c1cncnc1)(c1ccc(-c2ccc(OC(F)(F)F)cc2)cn1)C1CC1 (stereo not drawn) [Compound 73]	80 to 100%	80 to 100%	80 to 100%	60 to 79%	60 to 79%							
CC(=O)c1ccc(-c2ccc(C(O)(c3cncnc3)C(C)(C)C)nc2)cc1 (stereo not drawn) [Compound 101]	80 to 100%	80 to 100%	80 to 100%	80 to 100%	80 to 100%							
CC(C)(C)C(O)(c1cccnc1)c1ccc(-c2ccc(OC(F)F)cc2)cn1 (stereo not drawn) [Compound 82]	80 to 100%	80 to 100%	80 to 100%	80 to 100%	80 to 100%							
COc1ncncc1C(O)(c1ccc(-c2ccc(OC(F)(F)F)cc2)cn1)C(C)(C)C (stereo not drawn) [Compound 167]	80 to 100%	80 to 100%	60 to 79%	80 to 100%	80 to 100%							
CC(C)C(O)(c1cncnc1)c1ccc(Oc2ccc(Cl)cn2)cn1 (stereo not drawn) [Compound 13]	80 to 100%	60 to 79%	80 to 100%	40 to 59%	60 to 79%	80 to 100%						
CC(C)(C)C(O)(c1cncnc1)c1ccc(-c2ccc(OC(F)(F)F)cc2F)cn1 (stereo not drawn) [Compound 124, 1-(5-(2-fluoro-4-(trifluoromethoxy)phenyl)pyridin-2-yl)-2,2-dimethyl-1-(pyrimidin-5-yl)propan-1-ol]	80 to 100%	80 to 100%	80 to 100%	80 to 100%	80 to 100%							
CC(C)(C)C(O)(c1cncnc1)c1ccc(-c2ccc(C(F)(F)F)nc2)cn1 (stereo not drawn) [Compound 107]	80 to 100%	80 to 100%	60 to 79%	80 to 100%	60 to 79%							
CC(C)(C)c1ccc(-c2ccc(C(O)(c3cccnc3)C(C)(C)C)nc2)cc1 (stereo not drawn) [Compound 143]	80 to 100%	80 to 100%	60 to 79%	80 to 100%	80 to 100%							
OC(Cc1ccc(Cl)cc1F)(c1cccnc1)c1ccc(-c2ccc(OC(F)(F)F)cc2)cn1 (stereo not drawn) [Compound 90]	80 to 100%	80 to 100%	80 to 100%	80 to 100%	80 to 100%							
COc1ncncc1C(O)(c1ccc(-c2ccc(C3(C#N)CC3)cc2)cn1)C(C)(C)C (stereo not drawn) [Compound 169]	80 to 100%	80 to 100%	60 to 79%	80 to 100%	80 to 100%							
CC(C)C(O)(c1cncnc1)c1ccc(-c2ccc(OC(F)(F)F)cc2)cn1 (stereo not drawn) [Compound 63]	80 to 100%	80 to 100%	80 to 100%	40 to 59%	60 to 79%	80 to 100%						
Cc1cc(OC(F)(F)F)ccc1-c1ccc(C(O)(c2cccnc2)C(C)(C)C)nc1 (stereo not drawn) [Compound 146]	80 to 100%	80 to 100%	80 to 100%	80 to 100%	60 to 79%							
